# Read-outs that look alike come from different tables or passages of the source.
# What was measured:
# Format in all cases: cell-based
# [1] = tested on: HIV-1(IIIB); experiment: Knock-out concentrations: breakthrough of HIV-1(IIIB)-induced cytopathicity in CEM cell cultures; conditions: for activity at 0.1 µg/mL / activity at 0.5 µg/mL / activity at 2.5 µg/mL: Human immunodeficiency virus 1, IIIB, CCRF-CEM, read-out: HIV-1-induced cytopathicity in cell culture; for activity at 0.1 µg/mL: 0.1 μg/ml; for activity at 0.5 µg/mL: 0.5 μg/ml; for activity at 2.5 µg/mL: 2.5 μg/ml
# Procedure, shortened: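 CEM cells in RPMI 1640 with 10% FBS infected with HIV-1(IIIB) at ~1000× CCID50, subcultured every 3–4 days into fresh uninfected cells with drug held constant for 10 subcultivations (35 days), then ≥5 drug-free passages. Breakthrough scored by syncytium formation. Combinations used the two lowest single-drug starting concentrations.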
# [2] = tested on: HIV-1(IIIB) (WT); experiment: microbe, parasite or virus in culture; conditions: Human immunodeficiency virus 1, IIIB, CCRF-CEM
# Procedure, shortened: (§1)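 Syncytium formation read out after 4 days at 37° C. Cultures: CEM cells, 250,000/ml, infected at 100 50% cell culture infective doses/ml and added to compound dilutions.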
# [3] = tested on: HIV-1/Nev (106-Ala); experiment: Sensitivity of mutant HIV-1 strain in CEM cell cultures; conditions: Human immunodeficiency virus 1, CCRF-CEM; CEM cells, Table 1; read-out: 50% Effective Concentration
# Procedure, shortened: as §1
# [4] = tested on: HIV-1/II(0.1) 100-Ile; experiment: as above; conditions: Human immunodeficiency virus 1, CCRF-CEM; Table 5; read-out: EC50
# Procedure, shortened: as §1
# [5] = tested on: HIV-1/V(0.5) 103-Asn; experiment: as above; conditions: Human immunodeficiency virus 1, CCRF-CEM; Table 5; read-out: EC50
# Procedure, shortened: as §1
# [6] = tested on: HIV-1/TIBO R82913 (103-Asn); experiment: as above; conditions: Human immunodeficiency virus 1, CCRF-CEM; CEM cells, Table 1; read-out: 50% Effective Concentration
# Procedure, shortened: as §1
# [7] = tested on: HIV-1/TSAO-m^3 T (138-Lys); experiment: as above; conditions: Human immunodeficiency virus 1, CCRF-CEM; CEM cells, Table 1; read-out: 50% Effective Concentration
# Procedure, shortened: as §1
# [8] = tested on: HIV-1/IV(0.1) 103-Thr; experiment: as above; conditions: Human immunodeficiency virus 1, CCRF-CEM; Table 5; read-out: EC50
# Procedure, shortened: as §1
# [9] = tested on: HIV-1/V(0.1) 101-Ile + 141-Glu; experiment: as above; conditions: Human immunodeficiency virus 1, CCRF-CEM; Table 5; read-out: EC50
# Procedure, shortened: as §1
# [10] = tested on: HIV-1/Pyr (181-Cys); experiment: as above; conditions: Human immunodeficiency virus 1, CCRF-CEM; CEM cells, Table 1; read-out: 50% Effective Concentration
# Procedure, shortened: as §1
# [11] = tested on: HIV-1/III(0.1) 103-Asn; experiment: as above; conditions: Human immunodeficiency virus 1, CCRF-CEM; Table 5; read-out: EC50
# Procedure, shortened: as §1
# [12] = tested on: HIV-1/TIBO R82150 (100-Ile); experiment: as above; conditions: Human immunodeficiency virus 1, CCRF-CEM; CEM cells, Table 1; read-out: 50% Effective Concentration
# Procedure, shortened: as §1
# [13] = tested on: HIV-1/I(0.1) 103-Asn; experiment: as above; conditions: Human immunodeficiency virus 1, CCRF-CEM; Table 5; read-out: EC50
# Procedure, shortened: as §1
# [14] = 936 h, day 39 post infection, compound absent from day 35
# [15] = 1008 h, day 42 post infection, compound absent from day 35
# [16] = 1104 h, day 46 post infection, compound absent from day 35
# [17] = 1176 h, day 49 post infection, compound absent from day 35
# [18] = 1272 h, day 53 post infection, compound absent from day 35
compound,measurement,setting,value
Cc1occc1C(=S)Nc1ccc(Cl)c(C(=O)OCC(C)C)c1 [Compound II],"prevention of virus breakthrough, fold more efficient than BHAP",[1],at least 5 fold
same,"prevention of virus breakthrough, fold more efficient than nevirapine",[1],≥ 25 fold
same,activity at 0.1 µg/mL,"[1]; 96 h, day 4 post infection",0%
same,activity at 0.5 µg/mL,"[1]; 96 h, day 4 post infection",0%
same,activity at 2.5 µg/mL,"[1]; 96 h, day 4 post infection",0%
same,activity at 0.1 µg/mL,"[1]; 192 h, day 8 post infection",0%
same,activity at 0.5 µg/mL,"[1]; 192 h, day 8 post infection",0%
same,activity at 2.5 µg/mL,"[1]; 192 h, day 8 post infection",0%
same,activity at 0.1 µg/mL,"[1]; 264 h, day 11 post infection",0%
same,activity at 0.5 µg/mL,"[1]; 264 h, day 11 post infection",0%
same,activity at 2.5 µg/mL,"[1]; 264 h, day 11 post infection",0%
same,activity at 0.1 µg/mL,"[1]; 336 h, day 14 post infection",12.5%
same,activity at 0.5 µg/mL,"[1]; 336 h, day 14 post infection",0%
same,activity at 2.5 µg/mL,"[1]; 336 h, day 14 post infection",0%
same,activity at 0.1 µg/mL,"[1]; 408 h, day 17 post infection",50%
same,activity at 0.5 µg/mL,"[1]; 408 h, day 17 post infection",0%
same,activity at 2.5 µg/mL,"[1]; 408 h, day 17 post infection",0%
same,activity at 0.1 µg/mL,"[1]; 504 h, day 21 post infection",100%
same,activity at 0.5 µg/mL,"[1]; 504 h, day 21 post infection",0%
same,activity at 2.5 µg/mL,"[1]; 504 h, day 21 post infection",0%
same,activity at 0.1 µg/mL,"[1]; 600 h, day 25 post infection",100%
same,activity at 0.5 µg/mL,"[1]; 600 h, day 25 post infection",0%
same,activity at 2.5 µg/mL,"[1]; 600 h, day 25 post infection",0%
same,activity at 0.1 µg/mL,"[1]; 672 h, day 28 post infection",100%
same,activity at 0.5 µg/mL,"[1]; 672 h, day 28 post infection",0%
same,activity at 2.5 µg/mL,"[1]; 672 h, day 28 post infection",0%
same,activity at 0.1 µg/mL,"[1]; 768 h, day 32 post infection",100%
same,activity at 0.5 µg/mL,"[1]; 768 h, day 32 post infection",0%
same,activity at 2.5 µg/mL,"[1]; 768 h, day 32 post infection",0%
same,activity at 0.1 µg/mL,"[1]; 840 h, day 35 post infection",100%
same,activity at 0.5 µg/mL,"[1]; 840 h, day 35 post infection",0%
same,activity at 2.5 µg/mL,"[1]; 840 h, day 35 post infection",0%
same,activity at 0.1 µg/mL,[1]; [14],100%
same,activity at 0.5 µg/mL,[1]; [14],0%
same,activity at 2.5 µg/mL,[1]; [14],0%
same,activity at 0.1 µg/mL,[1]; [15],100%
same,activity at 0.5 µg/mL,[1]; [15],0%
same,activity at 2.5 µg/mL,[1]; [15],0%
same,activity at 0.1 µg/mL,[1]; [16],100%
same,activity at 0.5 µg/mL,[1]; [16],0%
same,activity at 2.5 µg/mL,[1]; [16],0%
same,activity at 0.1 µg/mL,[1]; [17],100%
same,activity at 0.5 µg/mL,[1]; [17],0%
same,activity at 2.5 µg/mL,[1]; [17],0%
same,activity at 0.1 µg/mL,[1]; [18],100%
same,activity at 0.5 µg/mL,[1]; [18],0%
same,activity at 2.5 µg/mL,[1]; [18],0%
same,concentration at which virus emerged (virus breakthrough),"[1]; tested at 0.1, 0.5 and 2.5 μg/ml, 35 days",0.1 µg/mL
same,EC50,"[2]; CEM cells, Table 1, read-out: 50% Effective Concentration",0.01 µg/mL
same,EC50,"[2]; HIV-1 (III8), Table 5, read-out: EC50",0.007 µg/mL
same,IC50,"[2]; range stated for Compounds I-V together, read-out: 50% inhibitory concentration, HIV-1(IIIB) replication in CEM cells",0.004 to 0.05 µg/mL
same,EC50,[3],0.075 µg/mL
same,EC50,[4],0.5 µg/mL
same,EC50,[5],0.8 µg/mL
same,EC50,[6],0.45 µg/mL
same,EC50,[7],0.06 µg/mL
same,EC50,[8],0.4 µg/mL
same,EC50,[9],0.06 µg/mL
same,EC50,[10],0.07 µg/mL
same,EC50,[11],0.16 µg/mL
same,EC50,[12],0.19 µg/mL
same,EC50,[13],0.15 µg/mL

# Source: US5968910A, “Compositions containing two or three inhibitors of different HIV reverse transcriptases” (priority 1994, dated 1999)
